Calls of active or inactive are those of the source. For most assays here, no stated cut-off is given here; in the data, actives have a measured AC50 and inactives only a lower limit.
Experiments:
Caspase-7 = Caspase-7 (Homo sapiens, UniProt P55210); experiment: caspase-7 enzyme inhibition, selectivity check – biochemical, DEVD-R110 fluorescence, cherry-pick, selectivity assay for caspase-6 inhibitor project, dose response (AID 743295); format: functional
[1] = molecular target: T1, Sentrin-specific protease 6 (Homo sapiens, UniProt Q9GZR1); format: functional;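 further: Luminescence-based dose-response confirmatory assay of SENP6 inhibition, following up an ultra-high-throughput screen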
T1 sequence (Q9GZR1 whole entry): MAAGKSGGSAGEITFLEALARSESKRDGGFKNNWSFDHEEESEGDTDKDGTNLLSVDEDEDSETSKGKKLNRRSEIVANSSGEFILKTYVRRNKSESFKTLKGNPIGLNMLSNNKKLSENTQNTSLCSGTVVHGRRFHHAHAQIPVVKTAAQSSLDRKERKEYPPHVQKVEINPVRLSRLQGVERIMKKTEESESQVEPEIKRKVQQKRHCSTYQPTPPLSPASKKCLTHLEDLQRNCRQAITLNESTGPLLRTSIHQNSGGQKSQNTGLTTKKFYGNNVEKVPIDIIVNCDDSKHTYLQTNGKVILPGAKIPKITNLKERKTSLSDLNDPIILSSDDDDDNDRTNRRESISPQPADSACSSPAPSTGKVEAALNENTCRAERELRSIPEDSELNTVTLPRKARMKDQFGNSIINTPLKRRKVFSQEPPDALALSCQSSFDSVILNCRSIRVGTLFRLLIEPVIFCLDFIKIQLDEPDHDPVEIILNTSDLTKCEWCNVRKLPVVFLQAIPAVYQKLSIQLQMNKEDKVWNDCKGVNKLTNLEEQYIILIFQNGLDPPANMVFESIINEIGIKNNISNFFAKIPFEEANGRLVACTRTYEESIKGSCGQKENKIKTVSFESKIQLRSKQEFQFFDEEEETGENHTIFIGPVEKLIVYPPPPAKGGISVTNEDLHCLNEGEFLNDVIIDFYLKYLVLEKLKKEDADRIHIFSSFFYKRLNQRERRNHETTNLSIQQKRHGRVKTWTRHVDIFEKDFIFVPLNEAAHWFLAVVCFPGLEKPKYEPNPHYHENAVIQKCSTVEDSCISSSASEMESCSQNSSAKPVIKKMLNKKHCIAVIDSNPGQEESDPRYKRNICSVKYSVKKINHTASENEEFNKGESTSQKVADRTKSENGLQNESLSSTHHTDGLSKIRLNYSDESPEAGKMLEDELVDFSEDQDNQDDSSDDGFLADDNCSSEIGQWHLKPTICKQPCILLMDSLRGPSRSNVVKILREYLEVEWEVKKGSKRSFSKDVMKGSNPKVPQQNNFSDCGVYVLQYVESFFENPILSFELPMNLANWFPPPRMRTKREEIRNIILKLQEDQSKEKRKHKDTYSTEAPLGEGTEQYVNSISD

Caspase-8 = Caspase-8 (Homo sapiens, UniProt Q14790); experiment: inhibitors of purified CASP8 protease – biochemical, Z-IETD-R110 fluorescence, cherry-picked samples, selectivity assay for caspase-6 inhibitor project, dose response (AID 743294)
[2] = molecular target: T2, Histone-lysine N-methyltransferase NSD2 (Homo sapiens, UniProt O96028); format: biochemical
T2 sequence (O96028 whole entry): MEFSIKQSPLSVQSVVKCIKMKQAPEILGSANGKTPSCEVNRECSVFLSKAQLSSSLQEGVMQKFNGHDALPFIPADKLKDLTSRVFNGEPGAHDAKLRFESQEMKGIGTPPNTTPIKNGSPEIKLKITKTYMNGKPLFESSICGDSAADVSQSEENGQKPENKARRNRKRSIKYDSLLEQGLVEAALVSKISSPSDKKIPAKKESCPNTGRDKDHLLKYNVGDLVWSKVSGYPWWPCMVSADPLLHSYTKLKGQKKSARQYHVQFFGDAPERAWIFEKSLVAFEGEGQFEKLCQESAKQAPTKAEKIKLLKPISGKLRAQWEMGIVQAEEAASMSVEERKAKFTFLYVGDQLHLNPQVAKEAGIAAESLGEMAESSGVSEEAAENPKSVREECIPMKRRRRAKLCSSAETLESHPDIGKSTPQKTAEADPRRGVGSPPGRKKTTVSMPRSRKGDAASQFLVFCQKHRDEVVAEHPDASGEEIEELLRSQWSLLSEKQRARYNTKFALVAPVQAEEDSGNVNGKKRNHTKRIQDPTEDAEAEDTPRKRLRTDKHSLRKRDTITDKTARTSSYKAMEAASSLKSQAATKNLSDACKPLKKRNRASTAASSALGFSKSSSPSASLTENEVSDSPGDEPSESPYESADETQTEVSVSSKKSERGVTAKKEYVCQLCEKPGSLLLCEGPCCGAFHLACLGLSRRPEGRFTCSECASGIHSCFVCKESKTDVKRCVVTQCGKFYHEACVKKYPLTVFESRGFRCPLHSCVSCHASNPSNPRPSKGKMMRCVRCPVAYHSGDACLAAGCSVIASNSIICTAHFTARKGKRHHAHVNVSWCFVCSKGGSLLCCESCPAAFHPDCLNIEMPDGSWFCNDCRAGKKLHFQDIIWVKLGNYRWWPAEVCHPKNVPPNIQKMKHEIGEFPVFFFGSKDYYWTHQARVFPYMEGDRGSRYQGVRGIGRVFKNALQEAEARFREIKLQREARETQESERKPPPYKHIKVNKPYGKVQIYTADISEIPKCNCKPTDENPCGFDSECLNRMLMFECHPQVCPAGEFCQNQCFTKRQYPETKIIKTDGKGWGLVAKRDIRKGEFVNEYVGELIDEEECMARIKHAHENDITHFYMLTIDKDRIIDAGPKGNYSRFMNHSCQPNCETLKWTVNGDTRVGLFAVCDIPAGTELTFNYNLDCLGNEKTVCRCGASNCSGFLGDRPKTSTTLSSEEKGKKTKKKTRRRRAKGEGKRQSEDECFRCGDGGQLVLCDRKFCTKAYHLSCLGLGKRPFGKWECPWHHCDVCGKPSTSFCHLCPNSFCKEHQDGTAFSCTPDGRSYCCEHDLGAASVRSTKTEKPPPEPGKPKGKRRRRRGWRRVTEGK

[3] = DRD fibroblast viability loss – cell-based, non-viral oncogenic, luminescence, dose response (AID 1934); format: functional; details: Homo sapiens
BJ [4] = experiment: BJ-TERT fibroblast viability loss – cell-based, RAS-independent, luminescence, dose response (AID 1933); format: functional; details: Homo sapiens
[5] = loss of viability in HepG2 cells – cell-based, CellTiter-Glo, cherry-picked, cytotoxicity control for Shn3 inhibitor project, dose response (AID 624134); format: functional
BJ [6] = experiment: BJ-TERT-LT-ST fibroblast viability loss – cell-based, RAS-independent, luminescence, dose response (AID 1935); format: functional; details: Homo sapiens;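 further: BJ fibroblasts immortalized with TERT plus LT and ST oncogenes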
INS1 = experiment: INS-1E survival protection against cytokine death – cell-based, luminescence, retest, dose response (AID 449756); format: functional; details: Rattus norvegicus;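 further: cell death triggered by IL-1 beta plus TNF-alpha plus IFN-gamma mixture; protective hits raise ATP signal compared with cytokine alone wells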
[7] = Counterscreen for AddAB inhibitors: absorbance-based bacterial cell-based high throughput dose response assay for inhibitors of bacterial viability. [Related pubchem assays (depositor defined):AID435030, AID449728, AID449731, AID488942, AID488955, AID488956]; format: functional
[8] = reduction of Shn3 3'UTR-driven luciferase in osteoblasts – cell-based, Clone20 osteoblasts, firefly luciferase, cherry-picked, dose response (AID 624132); format: functional;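 further: firefly luciferase luminescence from reporter carrying the Shn3 3'UTR in osteoblasts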

Caspase-7, sequence (P55210 24-198 limits assumed): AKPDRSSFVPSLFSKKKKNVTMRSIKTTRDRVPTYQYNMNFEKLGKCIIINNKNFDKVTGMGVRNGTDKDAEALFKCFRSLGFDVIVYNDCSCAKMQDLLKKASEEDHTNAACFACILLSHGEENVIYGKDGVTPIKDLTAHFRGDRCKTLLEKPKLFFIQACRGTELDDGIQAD
Caspase-7, sequence (P55210 207-303 limits assumed): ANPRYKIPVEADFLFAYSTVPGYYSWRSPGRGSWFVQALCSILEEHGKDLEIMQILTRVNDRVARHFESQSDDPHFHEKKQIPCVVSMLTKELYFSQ
Caspase-8, sequence (Q14790 217-374 limits assumed): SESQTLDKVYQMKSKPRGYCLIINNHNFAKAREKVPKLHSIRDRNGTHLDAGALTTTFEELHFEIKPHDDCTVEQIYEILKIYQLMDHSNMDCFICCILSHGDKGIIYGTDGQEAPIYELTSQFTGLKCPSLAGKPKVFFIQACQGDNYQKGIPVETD
Caspase-8, sequence (Q14790 385-479 limits assumed): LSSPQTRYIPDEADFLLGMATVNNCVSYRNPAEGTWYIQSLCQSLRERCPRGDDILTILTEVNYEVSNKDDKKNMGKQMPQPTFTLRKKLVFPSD

AC50 (Caspase-7) | IC50 [1] | AC50 (Caspase-8) | AC50 [2] | SMILES | EC50 [3] | EC50 (BJ [4]) | AC50 [5] | EC50 (BJ [6]) | AC50 (INS1) | IC50 [7] | AC50 [8]
20.6 µM (active) | 4.72 µM (active) | 23.8 µM (active) | 8.27 µM (active) | CN(CC(=O)Nc1ccccc1Cl)C(=O)COC(=O)c1ccc([N+](=O)[O-])s1 |  |  |  |  |  |  | 
 |  |  |  | CCCCC(=O)NC(c1ccc(N(C)C)cc1)c1ccc2cccnc2c1O (stereo unspecified) | 2.51 µM (active) | 1.05 µM (active) | 2.47 µM (active) | 3.17 µM (inconclusive) | 0.626 µM (active) | > 119 µM (inactive) | 0.98 µM (active)
